Activity calls are given as the source filed them. No rule for the calls is given here.
Biological target: Microphthalmia-associated transcription factor (Homo sapiens) (UniProt O75030)
Experiment: MITF inhibitors by FRET titration, dose response, biochemical, high throughput (AID 1259375);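 also: FRET between CFP-tagged and YFP-tagged MITF protein partners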
Settings: FRET biochemical assay, MITF inhibition

Chain of Microphthalmia-associated transcription factor (Homo sapiens) (O75030 whole entry, looked up): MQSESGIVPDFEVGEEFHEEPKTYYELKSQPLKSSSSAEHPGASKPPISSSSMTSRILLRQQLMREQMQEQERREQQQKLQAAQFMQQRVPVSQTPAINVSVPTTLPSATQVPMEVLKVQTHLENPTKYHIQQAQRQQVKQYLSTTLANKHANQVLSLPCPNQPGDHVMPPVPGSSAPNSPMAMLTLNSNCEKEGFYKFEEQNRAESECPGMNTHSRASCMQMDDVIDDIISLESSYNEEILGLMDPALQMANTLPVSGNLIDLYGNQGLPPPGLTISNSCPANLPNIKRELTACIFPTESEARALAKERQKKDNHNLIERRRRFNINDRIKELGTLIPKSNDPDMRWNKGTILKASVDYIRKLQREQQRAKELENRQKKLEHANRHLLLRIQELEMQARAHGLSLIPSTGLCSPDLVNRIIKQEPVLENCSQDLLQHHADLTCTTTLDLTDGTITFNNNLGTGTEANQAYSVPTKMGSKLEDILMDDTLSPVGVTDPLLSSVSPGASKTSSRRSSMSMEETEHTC

Row | SMILES | IC50
1 | O=S(=O)(O)c1cc(S(=O)(=O)O)c2cc(O)c(S(=O)(=O)O)cc2c1 | > 6.48 µM (inactive)
2 | CN(C)CCNc1nc(C2COc3ccccc3O2)nc2ccc(-c3cn[nH]c3)cc12 (centres undefined) | > 6.48 µM (inactive)
3 | O=C(OC1CCCC1=O)c1ccc(Cl)c(S(=O)(=O)N2CCOCC2)c1 (centres undefined) | > 6.69 µM (inactive)
4 | O=C(/C=C/c1ccco1)NCCCCNC(=O)/C=C/c1ccco1 | > 6.48 µM (inactive)
5 | O=C(c1ccc([N+](=O)[O-])cc1)N1CCN(Cc2cccc3ccccc23)CC1 | > 5.48 µM (inactive)
6 | C[C@H]1C(=O)N2CCN(C(=O)NCc3ccccc3)C[C@@H]2C(=O)N1C | > 6.48 µM (inactive)
7 | O=C1CCCC2=C1C(c1ccc([N+](=O)[O-])o1)C1=C(CCCC1=O)O2 | > 7.09 µM (inactive)
8 | NC(=O)c1cccc(-c2cccs2)c1 | > 6.74 µM (inactive)
9 | Cc1cccc(C(=O)Nc2c3c(nn2-c2ccc(F)cc2)CSC3)c1 | > 5.53 µM (inactive)
10 | COc1ccc2c(c1)CC(C(=O)Nc1ccc(-c3cn[nH]c3)cc1OCc1ccccc1)CO2 (centres undefined) | > 6.48 µM (inactive)
11 | Cc1ccc(N2C(=O)C3C(C2=O)C2(CO)C=CC3(C)O2)cc1[N+](=O)[O-] (centres undefined) | > 6.48 µM (inactive)
12 | O=C1N[C@@H](CC2CCCCC2)C(=O)N2CCN(C(=O)Nc3ccccc3)C[C@H]12 | > 6.48 µM (inactive)
13 | O=C(NCCc1ccc(O)cc1)c1ccnc(-c2cccs2)c1 | > 6.77 µM (inactive)
14 | Cc1ccc(C(=O)N/C(=C/c2ccc([N+](=O)[O-])o2)C(=O)O)cc1 | > 5.88 µM (inactive)
15 | CN(C)[C@@H]1C(=O)C(C(=O)NCN2CCCC2)=C(O)[C@@]2(O)C(=O)C3=C(O)c4c(O)cccc4[C@@](C)(O)C3CC12 (some centres undefined) | > 6.48 µM (inactive)
16 | NC(=O)c1ccc2nc(-c3cccs3)sc2c1 | > 6.18 µM (inactive)
17 | O=C(NCCO)c1ccc2nc(-c3ccco3)c(-c3ccco3)nc2c1 | 1.8 µM
18 | CCOC(=O)c1cc(N2C(=O)C3C4C=CC(C4)C3C2=O)ccc1Cl (centres undefined) | > 6.48 µM (inactive)
19 | C[C@H](O)[C@H]1NC(=O)[C@H]2CN(C(=O)NCc3ccccc3)CCN2C1=O | > 6.48 µM (inactive)
20 | CC1=C(C#N)C(c2cc3c(cc2[N+](=O)[O-])OCO3)C2=C(CCCC2=O)N1 (centres undefined) | > 6.48 µM (inactive)
21 | CCOC(=O)C1C2NC(=S)N(c3cccc(Cl)c3)C1(C)Oc1c(OC)cccc12 (centres undefined) | > 5.09 µM (inactive)
22 | O=C(/C=C/c1ccco1)NC(=S)Nc1ccc(Cl)c(C(=O)O)c1 | > 6.48 µM (inactive)
23 | O=C(NCc1ccccc1)N1CCN2C(=O)[C@H]3CCCN3C(=O)[C@H]2C1 | > 6.48 µM (inactive)
24 | COc1ccc(C)cc1NC(=O)C(NCC(O)c1ccccc1)c1ccccc1 (centres undefined) | > 7.02 µM (inactive)

Row | SMILES | IC50
25 | O=C(/C=C/c1ccco1)Nc1c[nH]c(=O)[nH]c1=O | > 6.48 µM (inactive)
26 | O=C(c1ccncc1)N1CCN(Cc2ccccc2[N+](=O)[O-])CC1 | > 6.13 µM (inactive)
27 | O=C(Cn1cc(C(=O)c2ccco2)c2ccccc21)NCc1cccnc1 | > 6.48 µM (inactive)
28 | NS(=O)(=O)c1ccc(N=Cc2cc3c(cc2[N+](=O)[O-])OCO3)cc1 | > 6.48 µM (inactive)
29 | N#C/C(=C\c1ccc(-c2ccccc2C(=O)O)o1)C(=O)NCc1ccco1 | > 6.48 µM (inactive)
30 | C[C@H]1NC(=O)[C@H]2CN(C(=O)NC3CCCCC3)CCN2C1=O | > 6.48 µM (inactive)
31 | CN(c1cccc(NS(=O)(=O)c2ccc([N+](=O)[O-])cc2)c1)S(C)(=O)=O | > 6.48 µM (inactive)
32 | O=C(NNC(=O)c1cc(-c2ccco2)nc2ccccc12)NC1CCCCC1 | > 6.48 µM (inactive)
33 | O=C(/C=C/c1ccco1)NC(=S)Nc1cccc(C(=O)O)c1 | > 6.48 µM (inactive)
34 | CC[C@H](C)[C@@H]1NC(=O)[C@H]2CN(C(=O)NCc3ccccc3)CCN2C1=O | > 6.48 µM (inactive)
35 | COc1ccccc1C1(NC(=O)CCCCC2SCC3NC(=O)NC32)CCCC1 (centres undefined) | > 6.48 µM (inactive)
36 | CC[C@@H]1NC(=O)[C@H]2CN(C(=O)NC3CCCCC3)CCN2C1=O | > 6.48 µM (inactive)
37 | N#CC1=c2/c(=C/c3ccco3)c(N)c(C#N)n2C(=O)C(c2ccco2)S1 (centres undefined) | 2.64 µM
38 | O=C1NC(=S)N/C1=C\c1ccc([N+](=O)[O-])o1 | > 7.74 µM (inactive)
39 | O=C(NCC(c1cccs1)S(=O)(=O)c1ccc(Cl)cc1)c1ccco1 (centres undefined) | > 6.55 µM (inactive)
40 | CCCCCCCCCCCCCCCC(=O)OC[C@H](O)[C@H]1OC(=O)C(=O)C1O (some centres undefined) | > 6.48 µM (inactive)
41 | COc1ccc2c(c1)C1NC(=S)N(c3cccc(C)c3)C(C)(O2)C1C(=O)Nc1ccc(C)cc1C (centres undefined) | > 5.71 µM (inactive)
42 | CN1C(=O)[C@H]2CN(C(=O)NC3CCCCC3)CCN2C(=O)[C@@H]1CO | > 6.48 µM (inactive)
43 | Cc1ccc(C(=O)Nc2ccc([N+](=O)[O-])cn2)o1 | > 6.48 µM (inactive)
44 | COc1cc(N2CCOCC2)ccc1Nc1cc(Nc2ccccc2-n2cccn2)c(C(F)(F)F)cn1 | > 6.48 µM (inactive)
45 | O=C(O)c1cc(S(=O)(=O)Nc2ccncc2)ccc1O | > 7.05 µM (inactive)
46 | NC(=O)c1cc(NC(=O)COC(=O)COc2cccc(C(F)(F)F)c2)cc(C(N)=O)c1 | > 6.49 µM (inactive)
47 | COc1cc(C=Nc2ccc(N(C)C)cc2)cc(I)c1O | > 6.48 µM (inactive)
48 | O=C(Nc1ccc(-c2ccncc2)c(C(F)(F)F)c1)C1COc2ccccc2O1 (centres undefined) | > 6.48 µM (inactive)

Row | SMILES | IC50
49 | CC(Oc1ccc(O)cc1)(P(=O)(O)O)P(=O)(O)O | > 6.48 µM (inactive)
50 | Cc1cc(/C=C2/C=CC(=O)O2)oc1C | > 7.29 µM (inactive)
51 | O=C(O)c1cccc(-n2cccc2/C=C\[N+](=O)[O-])c1 | > 6.48 µM (inactive)
52 | C[C@H]1NC(=O)[C@H]2CN(C(=O)NCc3ccccc3)CCN2C1=O | > 6.48 µM (inactive)
53 | O=C(CN1C(=O)NC2(CCCCCC2)C1=O)NC(=O)NCc1ccco1 | > 7.16 µM (inactive)
54 | CC1=C/C(=N\N=C2\NC(=O)C(CC(=O)Nc3ccc(C(=O)O)cc3)S2)CC(C)(C)C1 (centres undefined) | > 6.48 µM (inactive)
55 | O=C(O)c1cc(NN=C2CCCC2)ccc1Cl | > 7.18 µM (inactive)
56 | COc1cc(C)c2c(c1C=O)Oc1c(c(C)c(O)c3c1C(O)OC3=O)OC2=O (centres undefined) | 1.66 µM
57 | CN(C)CCN(C(=O)OCc1ccccc1)c1cc(-c2cn[nH]c2)ccc1NC(=O)OCc1ccccc1 | > 6.48 µM (inactive)
58 | CCOc1ccc(CN2CCN(Cc3cccnc3)CC2)cc1 | > 5.78 µM (inactive)
59 | c1ccc2c(c1)ncn2CC1CCN(Cc2cn3ccccc3n2)CC1 | > 6.48 µM (inactive)
60 | O=C1N[C@@H](Cc2c[nH]c3ccccc23)C(=O)N2CCN(C(=O)NC3CCCCC3)C[C@H]12 | > 6.48 µM (inactive)
61 | CC(C)(C)OC(=O)N1C(C(=O)O)CSC1c1cc2c(cc1[N+](=O)[O-])OCO2 (centres undefined) | > 6.48 µM (inactive)
62 | c1ccc(COc2ccc(OCCCCn3ccnc3)cc2)cc1 | > 6.48 µM (inactive)
63 | Cc1ncn(-c2ccc(N(C)c3ncc4cccc(-c5ccn[nH]5)c4n3)cc2)n1 | > 6.48 µM (inactive)
64 | N#CC(C#N)=C(N)/C(C#N)=C/c1ccc([N+](=O)[O-])o1 | 4.85 µM
65 | O=C1N[C@@H](Cc2ccccc2)C(=O)N2CCN(C(=O)NCc3ccccc3)C[C@H]12 | > 6.48 µM (inactive)
66 | Nc1ccc(O)c(C(=O)O)c1 | 2.52 µM
67 | Cc1cc(C(=O)O)ccc1-c1ccc(/C=C2/NC(=O)NC2=O)o1 | > 6.48 µM (inactive)
68 | CC(=C/C(=O)O)/C=C/c1ccoc1 | > 9.75 µM (inactive)
69 | O=C(O)/C=C/c1ccc([N+](=O)[O-])o1 | > 10.6 µM (inactive)
70 | Cc1cc(C)n2nc(N)c(N)c2n1 | > 11.6 µM (inactive)
71 | O=S(=O)(O)c1ccc(N/N=C2\CCc3ccccc32)cc1 | > 6.48 µM (inactive)
72 | Cc1cc2c(c(=O)[nH]1)C(=O)O/C2=C\c1ccco1 | inactive

Row | SMILES | IC50
73 | O=C(OC1CCCC1=O)c1ccc(N2CCCC2=O)cc1 (centres undefined) | > 7.22 µM (inactive)
74 | C=C1c2cccc(O)c2C(O)=C2C(=O)[C@]3(O)C(O)=C(C(N)=O)C(=O)[C@@H](N(C)C)[C@@H]3[C@@H](O)[C@H]12 | > 6.48 µM (inactive)
75 | COC(=O)c1ccc(=O)c2nc3/c(=C/O)c(O)cc(=O)c3[nH]c12 | 2.02 µM
76 | O=C(NC1CCCCC1)N1CCN2C(=O)[C@@H]3C[C@@H](O)CN3C(=O)[C@H]2C1 | > 6.48 µM (inactive)
77 | COc1cc2cc3c(N)c(C(=O)Nc4sc(C)c(C)c4C#N)sc3nc2cc1OC | > 6.48 µM (inactive)
78 | Nc1cc2c(S(=O)(=O)O)cc(S(=O)(=O)O)cc2cc1S(=O)(=O)O | > 6.48 µM (inactive)
79 | O=C1N[C@@H](COCc2ccccc2)C(=O)N2CCN(C(=O)NC3CCCCC3)C[C@H]12 | > 6.48 µM (inactive)
80 | O=C(NCc1ccccc1)N1CCN2C(=O)[C@@H]3CCCN3C(=O)[C@H]2C1 | > 6.48 µM (inactive)
81 | COc1ccc2nc(-c3ccco3)c(-c3ccco3)nc2c1 | inactive
82 | O=C(NCc1cccnc1)c1cccc(-c2cccs2)c1 | > 6.64 µM (inactive)
83 | COc1ccc(CN2CCN(Cc3ccccc3OC)CC2)cc1 | > 7.33 µM (inactive)
84 | CCCCOc1ccc(C(=O)N/C(=C/c2ccco2)C(=O)O)cc1 | inactive
85 | O=c1[nH]c(/C=C/c2ccco2)nc(O)c1[N+](=O)[O-] | inactive
86 | CCN(CCN(C)C)Cc1ccc(F)cc1 | > 6.48 µM (inactive)
87 | CCN(C(=O)C1COc2ccccc2O1)C12CC3CC(CC(C3)C1)C2 (centres undefined) | > 6.83 µM (inactive)
88 | C[C@@H]1NC(=O)[C@H]2CN(C(=O)NCc3ccccc3)CCN2C1=O | > 6.48 µM (inactive)
89 | C/C=C\C1=C(C(=O)O)N2C(=O)C(NC(=O)C(N)c3ccc(O)cc3)C2SC1 (centres undefined) | > 6.48 µM (inactive)
90 | O=C1N[C@@H](COCc2ccccc2)C(=O)N2CCN(C(=O)NCc3ccccc3)C[C@H]12 | > 6.48 µM (inactive)
91 | Nc1ccc(C(=O)O)c(O)c1 | 1.96 µM
92 | CCC12c3ccccc3C(c3ccccc31)C1C(=O)NC(=O)C12 (centres undefined) | > 6.48 µM (inactive)
93 | CCC(C)C(=O)NCc1nnc2n1CCN(C/C=C/c1ccco1)CC2 (centres undefined) | > 6.48 µM (inactive)
94 | CN(C)c1cc(NC(=O)CNC(C)(C)C)c(O)c2c1C[C@H]1C[C@H]3[C@@H](N(C)C)C(=O)C(C(N)=O)=C(O)[C@@]3(O)C(=O)C1=C2O | > 6.48 µM (inactive)
